Laboratory results as given in patent US8815503B2, “Compositions and methods for immunostimulatory RNA oligonucleotides” (Rheinische Friedrich-Wilhelms-Universitat Bonn, priority 2005, dated 2014).

System: PBMC
Test: 193 ssRNA 4mer-motif library screen: IL-12 (IL-12p40) production in PBMC of six donors, poly-L-Arg complexation, ELISA at 44 hours, IL-12 index and adjusted IL-12 index
Type: cell-based, human
Design: key to Adjusted IL-12 index Mean: IL-12 index (ratio to 9.2sense) minus donor mean, averaged over 6 donors
Settings: for Adjusted IL-12 index Mean: 193 ssRNA oligonucleotide library, data from six individual donors summarized, ascending order; for adjusted IL-12 index: summarized from all six donors
Procedure: FIG. 9: PBMC of six different healthy donors were isolated and stimulated with poly-L-arginine complexed ssRNA oligonucleotides in duplicates. 44 hours after stimulation IL-12p40 production was assessed in supernatant via ELISA. For all tested ssRNA oligonucleotides (table 3), the mean values of the measured duplicates were normalized to the positive control ssRNA oligonucleotide 9.2sense (5′-AGCUUAACCUGUCCUUCAA (SEQ ID NO: 194)) by dividing the mean value of tested oligonucleotide by the mean value of 9.2sense (=IL-12 index of a given oligonucleotide). Next, all individual IL-12 indices were adjusted to the mean value of all IL-12 indices by subtracting the mean value of all IL-12 indices from the individual IL-12 index of a given oligonucleotide (=adjusted IL-12 index). Data from six individual donors were summarized and were assorted in ascending order displaying the corresponding SEM (for a complete listing including numerical data see table 4). FIG. 9A discloses SEQ ID NOS 460-509, respectively, in order of appearance. FIG. 9B discloses SEQ ID NOS 510-559, respectively, in order of appearance. FIG. 9C discloses SEQ ID NOS 560-609, respectively, in order of appearance. FIG. 9D discloses SEQ ID NOS 610-652, respectively, in order of appearance.
All 193 ssRNA oligonucleotides were tested on PBMC of six individual healthy donors using poly-L-Arg for complexation. At 44 hours after stimulation with RNA oligonucleotides, supernatants were collected and IL-12 production was measured by ELISA. Prior to statistical analysis the raw data were processed as follows: for each cell culture plate the mean IL-12 value of the experimental duplicates for each tested ssRNA oligonucleotide were normalized to the ssRNA oligonucleotide RNA9.2sense (5′-AGCUUAACCUGUCCUUCAA-3′ (SEQ ID NO: 194)). This standard RNA oligonucleotide was included as a positive control on all cell culture plates. Normalization was performed by calculating the ratio of IL-12 induced by the tested oligonucleotide and IL-12 induced by the standard oligonucleotide RNA9.2sense. Thus, for each tested oligonucleotide in an individual donor a mean ratio of IL-12 induction was obtained. In the following, this mean of the ratios is referred to as IL-12 index (one value of IL-12 index per donor). […] The corresponding IL-12 index of oligonucleotide ANP175 for donor 3 was calculated to be 1.90 (=1725 pg/ml divided by 908 pg/ml).
Next, the means of all IL-12 indices for every individual donor were calculated. Then the adjusted IL-12 indices were calculated as IL-12 index minus the mean of all IL-12 indices of one individual donor. […] The adjusted IL-12 index of ANP175 was calculated: 1.90 minus 0.44=1.46. The adjusted IL-12 indices from all six donors were summarized by calculating the means and the corresponding standard error of mean. The data are depicted in ascending order (FIG. 9A, B, C, D). The adjusted IL-12 indices of the top thirty ssRNA oligonucleotides of all six donors were compared using a two-tailed Student's t-test (FIG. 10). For most combinations tested, a significant difference was observed when the interval between the analyzed pairs was at least eight or nine places in the assortment.

AAAAAAAUUCGAAAAAAAA (RNA, backbone not given here) [ANP-Oligo 186]
Adjusted IL-12 index Mean: −0.08

AAAAAAACACUAAAAAAAA (RNA, backbone not given here) [ANP-Oligo 055]
Adjusted IL-12 index Mean: −0.53

AAAAAAAUUCCAAAAAAAA (RNA, backbone not given here) [ANP-Oligo 185]
Adjusted IL-12 index Mean: −0.08

AAAAAAAUCCGAAAAAAAA (RNA, backbone not given here) [ANP-Oligo 162]
Adjusted IL-12 index Mean: −0.5

AAAAAAACAACAAAAAAAA (RNA, backbone not given here) [ANP-Oligo 050]
Adjusted IL-12 index Mean: −0.64

AAAAAAAUUUCAAAAAAAA (RNA, backbone not given here) [ANP-Oligo 191]
Adjusted IL-12 index Mean: 0.27

AAAAAAAGUCCAAAAAAAA (RNA, backbone not given here) [ANP-Oligo 137]
Adjusted IL-12 index Mean: −0.27

AAAAAAACCAUAAAAAAAA (RNA, backbone not given here) [ANP-Oligo 064]
Adjusted IL-12 index Mean: −0.38

AAAAAAAGCUCAAAAAAAA (RNA, backbone not given here) [ANP-Oligo 119]
Adjusted IL-12 index Mean: −0.48

AAAAAAAAGGGAAAAAAAA (RNA, backbone not given here) [ANP-Oligo 033]
Adjusted IL-12 index Mean: −0.59

AAAAAAAAUCGAAAAAAAA (RNA, backbone not given here) [ANP-Oligo 042]
Adjusted IL-12 index Mean: −0.64

AAAAAAAAAAAAAAAAAAA (RNA, backbone not given here) [ANP-Oligo 001]
Adjusted IL-12 index Mean: −0.48

AAAAAAACUUGAAAAAAAA (RNA, backbone not given here) [ANP-Oligo 096]
Adjusted IL-12 index Mean: −0.14

AAAAAAACCCUAAAAAAAA (RNA, backbone not given here) [ANP-Oligo 067]
Adjusted IL-12 index Mean: −0.3

AAAAAAAAGCCAAAAAAAA (RNA, backbone not given here) [ANP-Oligo 029]
Adjusted IL-12 index Mean: −0.66

AAAAAAACCUUAAAAAAAA (RNA, backbone not given here) [ANP-Oligo 073]
Adjusted IL-12 index Mean: −0.28

AAAAAAAUCAUAAAAAAAA (RNA, backbone not given here) [ANP-Oligo 160]
Adjusted IL-12 index Mean: 0.1

AAAAAAAGUGGAAAAAAAA (RNA, backbone not given here) [ANP-Oligo 141]
Adjusted IL-12 index Mean: 0.5

AAAAAAAGGGCAAAAAAAA (RNA, backbone not given here) [ANP-Oligo 128]
Adjusted IL-12 index Mean: −0.64

AAAAAAAACUAAAAAAAAA (RNA, backbone not given here) [ANP-Oligo 007]
Adjusted IL-12 index Mean: −0.56

AAAAAAAACCCAAAAAAAA (RNA, backbone not given here) [ANP-Oligo 017]
Adjusted IL-12 index Mean: −0.66

AAAAAAACCGUAAAAAAAA (RNA, backbone not given here) [ANP-Oligo 070]
Adjusted IL-12 index Mean: −0.16

AAAAAAACGUGAAAAAAAA (RNA, backbone not given here) [ANP-Oligo 084]
Adjusted IL-12 index Mean: −0.2

AAAAAAAACGCAAAAAAAA (RNA, backbone not given here) [ANP-Oligo 020]
Adjusted IL-12 index Mean: −0.66

AAAAAAAUUGUAAAAAAAA (RNA, backbone not given here) [ANP-Oligo 190]
Adjusted IL-12 index Mean: 1.6
adjusted IL-12 index: 1.6

AAAAAAAACUGAAAAAAAA (RNA, backbone not given here) [ANP-Oligo 024]
Adjusted IL-12 index Mean: −0.48

AAAAAAAUACUAAAAAAAA (RNA, backbone not given here) [ANP-Oligo 151]
Adjusted IL-12 index Mean: 0.3

AAAAAAACUCUAAAAAAAA (RNA, backbone not given here) [ANP-Oligo 091]
Adjusted IL-12 index Mean: −0.33

AAAAAAACAUUAAAAAAAA (RNA, backbone not given here) [ANP-Oligo 061]
Adjusted IL-12 index Mean: −0.23

AAAAAAAACGAAAAAAAAA (RNA, backbone not given here) [ANP-Oligo 006]
Adjusted IL-12 index Mean: −0.63

AAAAAAACUAUAAAAAAAA (RNA, backbone not given here) [ANP-Oligo 088]
Adjusted IL-12 index Mean: 0.3

AAAAAAAAGCGAAAAAAAA (RNA, backbone not given here) [ANP-Oligo 030]
Adjusted IL-12 index Mean: −0.6

AAAAAAAGACUAAAAAAAA (RNA, backbone not given here) [ANP-Oligo 103]
Adjusted IL-12 index Mean: −0.25

AAAAAAAAUGGAAAAAAAA (RNA, backbone not given here) [ANP-Oligo 045]
Adjusted IL-12 index Mean: −0.29

AAAAAAAUCGCAAAAAAAA (RNA, backbone not given here) [ANP-Oligo 164]
Adjusted IL-12 index Mean: −0.1

AAAAAAAAUUAAAAAAAAA (RNA, backbone not given here) [ANP-Oligo 013]
Adjusted IL-12 index Mean: −0.09

AAAAAAAGCGCAAAAAAAA (RNA, backbone not given here) [ANP-Oligo 116]
Adjusted IL-12 index Mean: −0.58

AAAAAAAAGAUAAAAAAAA (RNA, backbone not given here) [ANP-Oligo 028]
Adjusted IL-12 index Mean: −0.32

AAAAAAACGCCAAAAAAAA (RNA, backbone not given here) [ANP-Oligo 077]
Adjusted IL-12 index Mean: −0.62

AAAAAAAAUUCAAAAAAAA (RNA, backbone not given here) [ANP-Oligo 047]
Adjusted IL-12 index Mean: −0.45

AAAAAAACGAUAAAAAAAA (RNA, backbone not given here) [ANP-Oligo 076]
Adjusted IL-12 index Mean: 0.02

AAAAAAAUCCUAAAAAAAA (RNA, backbone not given here) [ANP-Oligo 163]
Adjusted IL-12 index Mean: −0.15

AAAAAAAUUAGAAAAAAAA (RNA, backbone not given here) [ANP-Oligo 183]
Adjusted IL-12 index Mean: 0.27

AAAAAAAAGCUAAAAAAAA (RNA, backbone not given here) [ANP-Oligo 031]
Adjusted IL-12 index Mean: −0.32

AAAAAAAAUCAAAAAAAAA (RNA, backbone not given here) [ANP-Oligo 011]
Adjusted IL-12 index Mean: −0.43

AAAAAAACCUGAAAAAAAA (RNA, backbone not given here) [ANP-Oligo 072]
Adjusted IL-12 index Mean: −0.51

AAAAAAAGAGCAAAAAAAA (RNA, backbone not given here) [ANP-Oligo 104]
Adjusted IL-12 index Mean: −0.61

AAAAAAAUCGUAAAAAAAA (RNA, backbone not given here) [ANP-Oligo 166]
Adjusted IL-12 index Mean: 4.42
adjusted IL-12 index: 4.42

AAAAAAACUACAAAAAAAA (RNA, backbone not given here) [ANP-Oligo 086]
Adjusted IL-12 index Mean: −0.46

AAAAAAAUCAGAAAAAAAA (RNA, backbone not given here) [ANP-Oligo 159]
Adjusted IL-12 index Mean: −0.28

AAAAAAACACGAAAAAAAA (RNA, backbone not given here) [ANP-Oligo 054]
Adjusted IL-12 index Mean: −0.65

AAAAAAAGGACAAAAAAAA (RNA, backbone not given here) [ANP-Oligo 122]
Adjusted IL-12 index Mean: −0.43

AAAAAAAUAACAAAAAAAA (RNA, backbone not given here) [ANP-Oligo 146]
Adjusted IL-12 index Mean: −0.16
